These molecules were tested against T1, Human 5-lipoxygenase (Homo sapiens, UniProt P09917) (assay: Activity of compounds against 5-LO enzyme (LTB4 measurement and/or fluorescence method)). Conditions: 5-LO, single concentration of 10 uM in duplicate.
T1 construct: purchased Cayman 60402; host or cells: insect cells
T1 sequence (P09917 1-674): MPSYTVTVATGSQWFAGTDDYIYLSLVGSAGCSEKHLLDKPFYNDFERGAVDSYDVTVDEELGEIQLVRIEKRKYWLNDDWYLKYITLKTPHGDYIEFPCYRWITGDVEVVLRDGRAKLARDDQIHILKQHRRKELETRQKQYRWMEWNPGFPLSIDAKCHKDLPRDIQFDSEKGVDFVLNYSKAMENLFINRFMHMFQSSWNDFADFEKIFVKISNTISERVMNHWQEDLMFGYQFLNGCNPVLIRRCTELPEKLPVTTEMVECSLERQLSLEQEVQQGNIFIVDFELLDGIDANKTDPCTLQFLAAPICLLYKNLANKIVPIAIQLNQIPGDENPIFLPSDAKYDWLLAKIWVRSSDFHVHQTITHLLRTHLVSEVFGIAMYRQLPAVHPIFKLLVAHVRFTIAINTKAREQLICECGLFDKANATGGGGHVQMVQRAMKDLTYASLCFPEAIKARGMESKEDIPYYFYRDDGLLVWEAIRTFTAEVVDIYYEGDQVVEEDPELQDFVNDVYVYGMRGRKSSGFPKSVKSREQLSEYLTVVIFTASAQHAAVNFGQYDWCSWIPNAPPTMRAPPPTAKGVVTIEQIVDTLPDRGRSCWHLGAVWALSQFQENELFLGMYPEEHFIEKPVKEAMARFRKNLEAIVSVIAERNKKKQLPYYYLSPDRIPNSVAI
Type: biochemical
Experimental: The activity of compounds against 5-LO were determined by measuring LTB4 (leukotriene B4) levels and/or by a fluorescence method. Both approaches are outlined in more detail below;
Human 5-lipoxygenase (Cayman, Cat#60402) produced in insect cells was pre-incubated with compound for 15 min at RT in incubation buffer (50 mM Tris-Cl, pH 7.4, 2 mM CaCl2, 0.1 mM ATP, 1% DMSO). The enzymatic reaction was started by adding arachidonic acid to a final concentration of 3 uM. After 5 min of incubation at 37° C., the reaction was stopped by heatinactivation at 80° C. for 5 min. LTB4 levels were quantified by using LTB4 EIA kit (Cayman, Cat#520111) as instructed and/or LTB4 levelswere measured with LC/MS/MS using Quattro Premier™ XE tandem quadrupole mass spectrometer equipped with Acquity UPLC system (Waters, Milford, Mass.). The method was slightly modified as reported previously (Zweifel et al., 2008, Willey et al., 2008, Chappell et al, 2011). Briefly, chromatographic separation was carried out with Acquity UPLC BEH Shield RP18 Column (2.1 mm×50 mm, 1.7 μm particle size, Waters, Milford, Mass.). Sample injection volume was 10 μl, the column temperature was 35° C., the mobile phase A consisted of water with 0.1% formic acid and the mobile phase B consisted of acetonitrile with 0.1% formic acid. Flow rate was 0.4 mL/min and the gradient condition was as follows.
Relative quantification of LTB4 and LTB4-d4 (Internal Standard) was done using multi reaction monitoring (MRM) of the transitions of m/z 335→195 for LTB4, 339→197 for LTB4-d4 in electrospray ionization (ESI) negative mode. Desolvation temperature was 400° C., source temperature was 130° C. Capillary voltage, cone voltage, and collision voltage were 3.5 kV, 30V, and 20 eV, respectively. Nitrogen was used for desolvation (750 L/h) and cone (50 L/h) gas. Argon was used for collision gas (0.22 ml/min). The dwell time was 10 ms.
Besides the two methods quantifying LTB4 level, a fluorescence assay measuring 5-HpETE was introduced for high-throughput screening in a 384 well microplate format (Pufahl et al., 2007). For nonspecific ester cleavage of the acetate groups in H2DCFDA, the insect cell lysate expressing human 5-LO (Cayman Cat#60402) was incubated with H2DCFDA (50 mM Tris-Cl, pH 7.5, 2 mM CaCl2, 20 uM H2DCFDA, 500 mU 5-LO per reaction) for 5 minutes. Compound and enzyme mixture were pre-incubated for 5 minutes, and the enzymatic reaction was initiated by addition of ATP and arachidonic acid to a final concentration of 100 uM and 3 uM, respectively. After 5 minutes of incubation, the fluorescence was measured using Spectramax M5 (Molecular Device, Ex/Em=485 nm/530 nm). All steps were carried out at room temperature.
A total of 378 compounds were initially tested at a single concentration of 10 uM in duplicate with the results summarized in Table 1. From these 378 compounds, 53 compounds plus an additional 25 were selected for confirmation of activity by 6 or 11 point dose response in duplicate with the corresponding IC50 values outlined in Table 2.

Structure (SMILES)	inhibition at 10 µM [%]
CCc1nc2cc(Cl)ccn2c1CNc1ccc(NC2CCN(c3ccc(F)cc3)CC2)cc1 [compound 375, N1-((7-chloro-2-ethylimidazo[1,2-a]pyridin-3-yl)methyl)-N4-(1-(4-fluorophenyl)piperidin-4-yl)benzene-1,4-diamine]	> 69
CCc1nc2ccc(Cl)cn2c1CN1CCC(CCc2ccc(F)cc2)CC1 [compound 349, 6-chloro-2-ethyl-3-((4-(4-fluorophenethyl)piperidin-1-yl)methyl)imidazo[1,2-a]pyridine]	40 to 69
CCc1nc2cc(Cl)ccn2c1C(=O)NCc1ccc(N2CC3CCCCC3C2)cc1 (stereo not drawn) [compound 216, N-(4-(1H-isoindol-2(3H,3aH,4H,5H,6H,7H,7aH)-yl)benzyl)-7-chloro-2-ethylimidazo[1,2-a]pyridine-3-carboxamide]	40 to 69
CCc1nc2ccc(OC)cn2c1C(=O)NCc1ccc(N2CCOCC2)cc1 [compound 272]	< 40
CCc1nc2cc(Cl)ccn2c1C(=O)NCc1ccc(N2CC=CCC2)cc1 [compound 194, 7-Chloro-N-(4-(5,6-dihydropyridin-1(2H)-yl)benzyl)-2-ethylimidazo[1,2-a]pyridine-3-carboxamide]	> 69
CCc1nc2ccc(Cl)cn2c1C(=O)N1CCC(OCc2ccc(Cl)cc2)CC1 [compound 332, (6-chloro-2-ethylimidazo[1,2-a]pyridin-3-yl)(4-((4-chlorobenzyl)oxy)piperidin-1-yl)methanone]	< 40
CCc1nc2ccc([N+](=O)[O-])cn2c1C(=O)NCc1ccc(OC(F)(F)F)cc1 [compound 69, 2-Ethyl-6-nitro-N-(4-(trifluoromethoxy)benzyl)imidazo[1,2-a]pyridine-3-carboxamide]	40 to 69
Cc1nc2ccc(-c3ccccc3)cn2c1C(=O)NCc1ccccc1 [compound 39, N-Benzyl-2-methyl-6-phenylimidazo[1,2-a]pyridine-3-carboxamide]	< 40
CCc1nc2ccc(Cl)cn2c1CNCCc1ccccn1 [compound 342, N-((6-chloro-2-ethylimidazo[1,2-a]pyridin-3-yl)methyl)-2-(pyridin-2-yl)ethanamine]	< 40
CCc1nc2cc(Cl)c(Cl)cn2c1C(=O)NCc1ccc(N2CCN(c3ccc(F)cc3)CC2)cc1 [compound 180, 6,7-Dichloro-2-ethyl-N-(4-(4-(4-fluorophenyl)piperazin-1-yl)benzyl)imidazo[1,2-a]pyridine-3-carboxamide]	< 40
CCc1nc2ccc(Br)cn2c1C(=O)NCc1ccc(OC(F)(F)F)cc1 [compound 176, 6-Bromo-2-ethyl-N-(4-(trifluoromethoxy)benzyl)imidazo[1,2-a]pyridine-3-carboxamide]	40 to 69
CCc1nc2cc(Cl)ccn2c1C(=O)NCc1ccc(N2CCC(C)CC2)cc1 [compound 195, 7-Chloro-2-ethyl-N-(4-(4-methylpiperidin-1-yl)benzyl)imidazo[1,2-a]pyridine-3-carboxamide]	40 to 69
COC(=O)c1ccc(CNC(=O)c2c(C)nc3ccccn23)cc1 [compound 25, Methyl 4-((2-methylimidazo[1,2-a]pyridine-3-carboxamido)methyl)benzoate]	< 40
CCc1nc2ccccn2c1C(=O)NCc1ccc(N2CCC(c3ccc(F)cc3)CC2)cc1 [compound 265, 2-Ethyl-N-(4-(4-(4-fluorophenyl)piperidin-1-yl)benzyl)imidazo[1,2-a]pyridine-3-carboxamide]	> 69
CCc1nc2cc(Cl)ccn2c1C(=O)NCc1ccc(N2CCC(c3ccc(OC(F)(F)F)cc3)CC2)cc1 [compound 268, 7-Chloro-2-ethyl-N-(4-(4-(4-(trifluoromethoxy)phenyl)piperidin-1-yl)benzyl)imidazo[1,2-a]pyridine-3-carboxamide]	40 to 69
CCc1nc2ccc(Cl)cn2c1C(=O)NCc1ccc(N2CCC(COC(C)C)CC2)cc1 [compound 276, 6-Chloro-2-ethyl-N-(4-(4-(isopropoxymethyl)piperidin-1-yl)benzyl)imidazo[1,2-a]pyridine-3-carboxamide]	< 40

Continued, values first:

inhibition at 10 µM [%]	Structure (SMILES)
< 40	CCc1nc2cc(Cl)ccn2c1C(=O)NCc1ccc(-c2ccc(C(F)(F)F)cc2)cc1 [compound 111, 7-Chloro-2-ethyl-N-((4′-(trifluoromethyl)biphenyl-4-yl)methyl)imidazo[1,2-a]pyridine-3-carboxamide]
40 to 69	CCc1nc2ccc(Cl)cn2c1C(=O)NCc1ccc(-c2ccccc2C(F)(F)F)cc1 [compound 98, 6-Chloro-2-ethyl-N-((2′-(trifluoromethyl)biphenyl-4-yl)methyl)imidazo[1,2-a]pyridine-3-carboxamide]
40 to 69	CCc1nc2ccc(Cl)cn2c1C(=O)NCc1ccc(-c2ccccc2Cl)cc1 [compound 72, 6-Chloro-N-((2′-chlorobiphenyl-4-yl)methyl)-2-ethylimidazo[1,2-a]pyridine-3-carboxamide]
< 40	CCc1nc2ccc(Cl)cn2c1C(=O)NCc1ccc(N2CCC(NC(=O)c3ccc(F)cc3)CC2)cc1 [compound 318, 6-chloro-2-ethyl-N-(4-(4-(4-fluorobenzamido)piperidin-1-yl)benzyl)imidazo[1,2-a]pyridine-3-carboxamide]
< 40	CCc1nc2ccc(Cl)cn2c1C(=O)NCc1ccc(Cl)cc1 [compound 78, 6-Chloro-N-(4-chlorobenzyl)-2-ethylimidazo[1,2-a]pyridine-3-carboxamide]
< 40	CCc1nc2ccc(Cl)cn2c1C(=O)NCc1ccc(N2CCN(C)CC2)cc1 [compound 105, 6-Chloro-2-ethyl-N-(4-(4-methylpiperazin-1-yl)benzyl)imidazo[1,2-a]pyridine-3-carboxamide]
40 to 69	CCc1nc2cc(Cl)ccn2c1C(=O)NCc1ccc(-c2ccc(C)cc2)cc1 [compound 87, 7-Chloro-2-ethyl-N-((4′-methylbiphenyl-4-yl)methyl)imidazo[1,2-a]pyridine-3-carboxamide]
40 to 69	CCc1nc2cc(Cl)ccn2c1C(=O)NCc1ccc(-c2ccccc2C#N)cc1 [compound 106, 7-Chloro-N-((2′-cyanobiphenyl-4-yl)methyl)-2-ethylimidazo[1,2-a]pyridine-3-carboxamide]
> 69	CCc1nc2ccc(C)cn2c1C(=O)NCc1ccc(Oc2ccccc2)cc1 [compound 58, 2-Ethyl-6-methyl-N-(4-phenoxybenzyl)imidazo[1,2-a]pyridine-3-carboxamide]

Same assay, conditions: 6 or 11 point dose response in duplicate

Structure (SMILES)	IC50 [µM]
CCc1nc2cnccn2c1CNc1ccc(N2CCN(c3ccc(F)cc3)CC2)cc1 [compound 398, N-((2-Ethylimidazo[1,2-a]pyrazin-3-yl)methyl)-4-(4-(4-fluorophenyl)piperazin-1-yl)aniline]	< 1
CCc1nc2cc(Cl)ccn2c1C(=O)NCc1ccc(N2CC=CCC2)cc1 [compound 194, 7-Chloro-N-(4-(5,6-dihydropyridin-1(2H)-yl)benzyl)-2-ethylimidazo[1,2-a]pyridine-3-carboxamide]	> 20
CCc1nc2ccccn2c1C(=O)NCc1ccc(N2CCC(c3ccc(F)cc3)CC2)cc1 [compound 265, 2-Ethyl-N-(4-(4-(4-fluorophenyl)piperidin-1-yl)benzyl)imidazo[1,2-a]pyridine-3-carboxamide]	< 1

Next, values leading:

IC50 [µM]	Structure (SMILES)
> 20	CCc1nc2cccnn2c1C(=O)NCc1ccc(-c2ccc(Cl)cc2)cc1 [compound 388, N-((4′-Chloro-[1,1′-biphenyl]-4-yl)methyl)-2-ethylimidazo[1,2-b]pyridazine-3-carboxamide]
1 to 20	CCc1nc2ccc(C)cn2c1C(=O)NCc1ccc(Oc2ccccc2)cc1 [compound 58, 2-Ethyl-6-methyl-N-(4-phenoxybenzyl)imidazo[1,2-a]pyridine-3-carboxamide]
